Assay results reported in US9023865B2, “Compounds that are ERK inhibitors” (Merck Sharp & Dohme Corp., priority 2011, dated 2015).
Counter-ions that a name gives are not always drawn. Like-named read-outs stand apart in the source and are kept apart here.

Columns and labels:
[1] = biological target: Active Human ERK2 (hERK2) (Homo sapiens (Human), UniProt P28482); assay: Active Human ERK2 (hERK2) Activity Assay (IMAP-FP); type: biochemical
Method in brief: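 Phosphorylation by activated human ERK2 (0.5 nM) at 30 μM ATP, peptide substrate 900 nM unlabeled with 80 nM labeled, proceeds 60 min. IMAP beads stop the reaction; after 60 min equilibration, product is measured by fluorescence polarization.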

[2] = biological target: Active Mouse ERK2 (mERK2) (Mus musculus (Mouse), UniProt P63085); assay: Active Mouse ERK2 (mERK2) Activity Assay (IMAP-FP); type: biochemical
Method: Active Mouse ERK2 (mERK2) Activity Assay:
Activated ERK2 activity was determined in an IMAP-FP assay (Molecular Devices). […] Phosphorylation reactions were allowed to proceed for 45 minutes and were immediately quenched by the addition of 60 μL IMAP detection beads (1:1000 dilutions) in IMAP binding buffer (Molecular Devices) with 24 mM NaCl. Plates were read on EnVision reader after 60 minutes binding equilibration using Fluorescence Polarization protocol (Perkin Elmer).

[3] = phosphorylated active hERK2, 30 μM ATP, average, read-out: ERK 2 Human average IC50
[4] = phosphorylated active mERK2, 30 uM ATP, read-out: ERK 2 MAPK1 Mouse IC50
[5] = read-out: AERK2 IC50 (Active mouse ERK2 Activity Assay)
[6] = read-out: AERK2 IC50 (Active human ERK2 Activity Assay)

Sequence of Active Mouse ERK2 (mERK2) (P63085 whole entry): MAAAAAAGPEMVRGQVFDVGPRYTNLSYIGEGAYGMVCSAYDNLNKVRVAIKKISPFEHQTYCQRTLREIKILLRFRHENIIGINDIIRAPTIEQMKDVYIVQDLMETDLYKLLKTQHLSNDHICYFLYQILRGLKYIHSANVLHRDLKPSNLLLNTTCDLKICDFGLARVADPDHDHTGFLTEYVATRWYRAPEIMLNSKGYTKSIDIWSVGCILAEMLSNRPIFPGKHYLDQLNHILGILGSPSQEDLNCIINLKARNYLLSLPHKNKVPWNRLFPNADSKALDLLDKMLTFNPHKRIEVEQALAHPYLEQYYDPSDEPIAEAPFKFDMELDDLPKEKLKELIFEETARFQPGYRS
Sequence of Active Human ERK2 (hERK2) (P28482 whole entry): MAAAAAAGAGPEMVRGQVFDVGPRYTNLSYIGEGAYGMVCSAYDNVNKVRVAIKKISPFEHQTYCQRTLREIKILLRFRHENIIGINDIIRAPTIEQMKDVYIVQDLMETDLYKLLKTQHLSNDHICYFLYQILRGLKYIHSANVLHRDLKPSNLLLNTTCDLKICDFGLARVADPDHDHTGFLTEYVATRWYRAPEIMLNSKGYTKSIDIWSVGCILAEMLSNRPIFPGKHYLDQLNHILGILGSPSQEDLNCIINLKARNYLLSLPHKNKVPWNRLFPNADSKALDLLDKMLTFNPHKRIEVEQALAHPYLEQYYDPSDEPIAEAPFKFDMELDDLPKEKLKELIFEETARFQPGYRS

SMILES | IC50 [1, 3] | IC50 [2, 4] | also measured
COc1cccc(F)c1CN1CCC[C@@H](NC(=O)Nc2cc3[nH]nc(-c4ccnc(C)c4)c3cn2)C1 [Example 2, 1-[(3R)-1-(2-fluoro-6-methoxybenzyl)-piperidin-3-yl]-3-[3-(2-methylpyridin-4-yl)-1H-pyrazolo[4,3-c]pyridin-6-yl]urea] | 0.286 nM | 0.152 nM | IC50 [2, 5]: 0.1 to 1.2 nM
Cc1cc(-c2n[nH]c3cc(NC(=O)N[C@H](CO)c4ccccc4)ncc23)ccn1 [Example 15, 1-[(1S)-2-hydroxy-1-phenylethyl]-3-[3-(2-methylpyridin-4-yl)-1H-pyrazolo[4,3-c]pyridin-6-yl]urea] | 0.392 nM |  | IC50 [2, 5]: 0.1 to 1.2 nM
Cc1cc(-c2n[nH]c3cc(NC(=O)NC4CCCNC4)ncc23)ccn1 (stereo not shown) [Example 1, 3-({[3-(2-methylpyridin-4-yl)-1H-pyrazolo[4,3-c]pyridin-6-yl]carbamoyl}amino)piperidinium trifluoroacetate] |  | 3.13 nM | 
Cc1cc(-c2n[nH]c3cc(NC(=O)NCc4ccc(Cl)cc4)ncc23)ccn1 [Example 26, 1-(4-chlorobenzyl)-3-[3-(2-methylpyridin-4-yl)-1H-pyrazolo[4,3-c]pyridin-6-yl]urea] | 0.513 nM | 0.457 nM | IC50 [2, 5]: 0.1 to 1.2 nM
Cc1cc(-c2n[nH]c3cc(NC(=O)NC(CO)c4ccccc4)ncc23)ccn1 (stereo not shown) [Example 10, 1-(2-hydroxy-1-phenylethyl)-3-[3-(2-methylpyridin-4-yl)-1H-pyrazolo[4,3-c]pyridin-6-yl]urea] |  | 0.215 nM | IC50 [2, 5]: 0.1 to 1.2 nM
Cc1cc(-c2n[nH]c3cc(NC(=O)N[C@@H](C)c4ccccc4)ncc23)ccn1 [Example 7, 1-[3-(2-methylpyridin-4-yl)-1H-pyrazolo[4,3-c]pyridin-6-yl]-3-[(1S)-1-phenylethyl]urea] |  | 38.3 nM | 
Cc1cc(-c2n[nH]c3cc(NC(=O)N[C@@H](c4ccccc4)C(F)(F)F)ncc23)ccn1 [Example 16, 1-[3-(2-methylpyridin-4-yl)-1H-pyrazolo[4,3-c]pyridin-6-yl]-3-[(1S)-2,2,2-trifluoro-1-phenylethyl]urea] |  | 3.78 nM | 
Cc1cc(-c2n[nH]c3cc(NC(=O)N[C@@H](C)c4ccc(F)cc4)ncc23)ccn1 [Example 11, 1-[(1S)-1-(4-fluorophenyl)ethyl]-3-[3-(2-methylpyridin-4-yl)-1H-pyrazolo[4,3-c]pyridin-6-yl]urea] | 0.342 nM | 0.152 nM | IC50 [2, 5]: 0.1 to 1.2 nM
C[C@@H](NC(=O)Nc1cc2[nH]nc(C3=CCOCC3)c2cn1)c1ccccc1 [Example 20, 1-[3-(3,6-dihydro-2H-pyran-4-yl)-1H-pyrazolo[4,3-c]pyridin-6-yl]-3-[(1R)-1-phenylethyl]urea] |  | 0.537 nM | IC50 [2, 5]: 0.1 to 1.2 nM
COc1cccc(F)c1CN1CCC[C@H](NC(=O)Nc2cc3[nH]nc(-c4ccnc(C)c4)c3cn2)C1 [Example 3, 1-[(3S)-1-(2-fluoro-6-methoxybenzyl)-piperidin-3-yl]-3-[3-(2-methylpyridin-4-yl)-1H-pyrazolo[4,3-c]pyridin-6-yl]urea] |  | 36.6 nM | 
Cc1cc(-c2n[nH]c3cc(NC(N)=O)ncc23)ccn1 [Example 23, 1-(3-(2-methylpyridin-4-yl)-1H-pyrazolo[4,3-c]pyridin-6-yl)urea] | 2 nM | 2.22 nM | 
COCCCc1n[nH]c2cc(NC(=O)N[C@H](C)c3ccccc3)ncc12 [Example 21, (R)-1-(3-(3-methoxypropyl)-1H-pyrazolo[4,3-c]pyridin-6-yl)-3-(1-phenylethyl)urea] | 2.53 nM | 2.23 nM | 
Cc1cc(-c2n[nH]c3cc(NC(=O)N[C@@H](CO)c4ccccc4)ncc23)ccn1 [Example 17, 1-[(1R)-2-hydroxy-1-phenylethyl]-3-[3-(2-methylpyridin-4-yl)-1H-pyrazolo[4,3-c]pyridin-6-yl]urea] |  | 108 nM | 
Cc1cc(-c2n[nH]c3cc(NC(=O)NCc4nnc(C)o4)ncc23)ccn1 [Example 13] |  | 10.2 nM | 
Cc1cc(-c2n[nH]c3cc(NC(=O)NCc4cccnc4)ncc23)ccn1 [Example 14, 1-[3-(2-methylpyridin-4-yl)-1H-pyrazolo[4,3-c]pyridin-6-yl]-3-(pyridin-3-ylmethyl)urea] |  | 1.16 nM | IC50 [2, 5]: 0.1 to 1.2 nM
Cc1cc(-c2n[nH]c3cc(NC(=O)NCCc4ccccc4)ncc23)ccn1 [Example 5, 1-[3-(2-methylpyridin-4-yl)-1H-pyrazolo[4,3-c]pyridin-6-yl]-3-(2-phenylethyl)urea] |  | 0.502 nM | IC50 [2, 5]: 0.1 to 1.2 nM
Cc1cc(-c2n[nH]c3cc(NC(=O)NCc4ccc(Cl)c(Cl)c4)ncc23)ccn1 [Example 8, 1-(3,4-dichlorobenzyl)-3-[3-(2-methylpyridin-4-yl)-1H-pyrazolo[4,3-c]pyridin-6-yl]urea] |  | 0.516 nM | IC50 [2, 5]: 0.1 to 1.2 nM
COc1cccc(F)c1CN1CCCC(NC(=O)Nc2cc3[nH]nc(-c4ccnc(C)c4)c3cn2)C1 (stereo not shown) [Example 4, 1-[1-(2-fluoro-6-methoxybenzyl)-piperidin-3-yl]-3-[3-(2-methylpyridin-4-yl)-1H-pyrazolo[4,3-c]pyridin-6-yl]urea] |  | 1.12 nM | IC50 [2, 5]: 0.1 to 1.2 nM
Cc1cc(-c2n[nH]c3cc(NC(=O)N[C@H](c4ccccc4)C(F)(F)F)ncc23)ccn1 [Example 18, 1-[3-(2-methylpyridin-4-yl)-1H-pyrazolo[4,3-c]pyridin-6-yl]-3-[(1R)-2,2,2-trifluoro-1-phenylethyl]urea] |  | 9.46 nM | 
CC1=NOC(CNC(=O)Nc2cc3[nH]nc(-c4ccnc(C)c4)c3cn2)C1 (stereo not shown) [Example 191] | 17.6 nM |  | 
Cc1cc(-c2n[nH]c3cc(NC(=O)NC4(c5ccccn5)CC4)ncc23)ccn1 [Example 351] | 91.9 nM |  | 
Cc1cc(-c2n[nH]c3cc(NC(=O)NC4CCOC(C)(C)C4)ncc23)ccn1 (stereo not shown) [Example 196] | 23.6 nM |  | 
COC[C@@H](NC(=O)Nc1cc2[nH]nc(-c3ccnc(C)c3)c2cn1)c1ccccc1 [Example 538] | 0.298 nM |  | 
COC[C@@H](NC(=O)Nc1cc2[nH]nc(-c3ccnc(N4CCNCC4)c3)c2cn1)c1ccc(F)cc1 [Example 306] | 0.81 nM |  | 

SMILES | IC50 [1, 3] | IC50 [2, 4] | also measured
Cc1cc(-c2n[nH]c3cc(NC(=O)NC(C)CO)ncc23)ccn1 (stereo not shown) [Example 200] | 25.6 nM |  | 
Cc1cc(-c2n[nH]c3cc(NC(=O)NCCC4=CCCC4)ncc23)ccn1 [Example 212] | 1.76 nM |  | 
Cc1cc(-c2n[nH]c3cc(NC(=O)N[C@@H]4CCc5ccc(F)cc54)ncc23)ccn1 [Example 270] | 3.73 nM |  | 
Cc1cc(-c2n[nH]c3cc(NC(=O)NCCc4nc5ccccc5[nH]4)ncc23)ccn1 [Example 377] | 0.478 nM |  | 
C[C@@H](NC(=O)Nc1cc2[nH]nc(-c3cn[nH]c3)c2cn1)c1ccc(F)c(Cl)c1 [Example 74, 1-[(1R)-1-(3-chloro-4-fluorophenyl)ethyl]-3-[3-(1H-pyrazol-4-yl)-1H-pyrazolo[4,3-c]pyridin-6-yl]urea] | 0.603 nM |  | IC50 [1, 6]: 0.2 to 1.7 nM
Cc1cc(-c2n[nH]c3cc(NC(=O)NC4CCCC(Oc5cccc(F)c5)C4)ncc23)ccn1 (stereo not shown) [Example 648] | 28.2 nM |  | 
C[C@@H](NC(=O)Nc1cc2[nH]nc(-c3ccc(=O)[nH]c3)c2cn1)c1ccc(F)cc1 [Example 282] | 0.304 nM |  | 
Cc1cc(-c2n[nH]c3c(Cl)c(NC(=O)N[C@H](C)c4ccccc4)ncc23)ccn1 [Example 571, (R)-1-(7-chloro-3-(2-methylpyridin-4-yl)-1H-pyrazolo[4,3-c]pyridin-6-yl)-3-(1-phenylethyl)urea] | 3.07 nM |  | 
C[C@@H](NC(=O)Nc1cc2[nH]nc(-c3ccnc(F)c3)c2cn1)c1ccc(Cl)cc1 [Example 57, 1-[(1R)-1-(4-chlorophenyl)ethyl]-3-[3-(2-fluoropyridin-4-yl)-1H-pyrazolo[4,3-c]pyridin-6-yl]urea] | 1.84 nM |  | IC50 [1, 6]: 0.2 to 1.7 nM
C[C@@H](NC(=O)Nc1cc2[nH]nc(C3CCC3)c2cn1)c1ccccn1 [Example 149] | 72.1 nM |  | 
Cc1cc(-c2n[nH]c3cc(NC(=O)N[C@H](C)c4ccccc4)ncc23)no1 [Example 682] | 32.4 nM |  | 
Cc1cc(-c2n[nH]c3cc(NC(=O)NC4CCOc5ccccc54)ncc23)ccn1 (stereo not shown) [Example 532] | 3.52 nM |  | 
CCNC(=O)Nc1cc2[nH]nc(-c3ccc(F)cc3)c2cn1 [Example 608] | 3.81 nM |  | 
Cc1cc(-c2n[nH]c3cc(NC(=O)NC(C)CC4CCCO4)ncc23)ccn1 (stereo not shown) [Example 239] | 5.88 nM |  | 
Cc1cc(-c2n[nH]c3cc(NC(=O)NC(CF)c4ccccc4)ncc23)ccn1 (stereo not shown) [Example 354] | 0.474 nM |  | 
C[C@@H](NC(=O)Nc1cc2[nH]nc(-c3ccc(N4CCOCC4)nc3)c2cn1)c1ccc(F)cc1 [Example 255] | 0.783 nM |  | 
COCCNC(=O)Nc1cc2[nH]nc(-c3ccnc(OC(C)C)c3)c2cn1 [Example 604] | 16.1 nM |  | 
O=C(NCc1ccc(F)cc1)Nc1cc2[nH]nc(C3CC3)c2cn1 [Example 140, 1-(3-cyclopropyl-1H-pyrazolo[4,3-c]pyridin-6-yl)-3-(4-fluorobenzyl)urea] | 23.5 nM |  | 
C[C@@H](NC(=O)Nc1cc2[nH]nc(C(=O)NCC34CC5CC(C3)C(O)C(C5)C4)c2cn1)c1ccccc1 (stereo partly shown) [Example 127] | 14.7 nM |  | 
O=C(NCc1ccc(F)cc1)Nc1cc2[nH]nc(-c3ccc(OC(F)(F)F)cc3)c2cn1 [Example 675] | 89.2 nM |  | 
Cc1ccc(C2(NC(=O)Nc3cc4[nH]nc(-c5ccnc(C)c5)c4cn3)CC2)cc1 [Example 342] | 40.9 nM |  | 
Cc1cc(-c2n[nH]c3cc(NC(=O)NC4CCCC(Oc5cccc(F)c5)C4)ncc23)ccn1 (stereo not shown) [Example 657] | 4.67 nM |  | 
Cc1cc(-c2n[nH]c3cc(NC(=O)NC(c4cccnc4)C(F)F)ncc23)ccn1 (stereo not shown) [Example 509] | 3.07 nM |  | 
